US9409893B2, “Heteroaryl derivatives and uses thereof” (Jacobus Pharmaceutical Company, Inc., priority 2012, dated 2016)
Marks after values point to notes of the source that are not given here.

Assays:
hERG potassium channel = hERG potassium channel (Homo sapiens, UniProt Q12809); assay: Whole cell patch clamp of cloned hERG potassium channels expressed in HEK293 cells; assay type: cell-based; conditions: for IC50: patch clamp, read-out: IC50 for the inhibitory effect on hERG potassium current
Description: For in vitro testing, the functional hERG assay using conventional patch clamp electrophysiology is considered the gold standard for assessment of drug interactions with the hERG potassium channel (Yao et al., Br. J. Pharmacol. 2008, 154, 1446-1456). In this assay, hERG channels are expressed in a human embryonic kidney (HEK293) cell line that lacks endogenous IKr.
The objective of this study was to examine the in vitro effects of test articles on the hERG (human ether-à-go-go-related gene) potassium channel current (a surrogate for IKr, the rapidly activating delayed rectifier cardiac potassium current).
All chemicals used in solution preparation were purchased from Sigma-Aldrich (St. Louis, Mo.) unless otherwise noted and were of ACS reagent grade purity or higher. Stock solutions of the test article and the positive control were prepared in dimethyl sulfoxide (DMSO) and stored frozen. Test article and positive control concentrations were prepared fresh daily by diluting stock solutions into a HEPES-buffered physiological saline (HB-PS) solution (composition in mM): NaCl, 137; KCl, 4.0; CaCl2, 1.8; MgCl2, 1; HEPES, 10; Glucose, 10; pH adjusted to 7.4 with NaOH (prepared weekly and refrigerated until use).
HEK/hERG • Organism: Homo sapiens • Designation: 293 • Tissue: Kidney; Transformed with adenovirus 5 DNA; Transfected with human-ether-a-go-go cDNA • Morphology: Epithelial • Age Stage Embryo • Source Strain: ATCC, Manassas, Va. • Source Substrain ChanTest Corporation, Cleveland, Ohio
HEK293 cells were stably transfected with hERG cDNA. Stable transfectants were selected by coexpression with the G418-resistance gene incorporated into the expression plasmid. Selection pressure was maintained by including G418 in the culture medium. Cells were cultured in Dulbecco's Modified Eagle Medium/Nutrient Mixture F-12 (D-MEM/F-12) supplemented with 10% fetal bovine serum, 100 U/mL penicillin G sodium, 100 μg/mL streptomycin sulfate and 500 μg/mL G418.
All experiments were performed at room temperature. Each cell acted as its own control.
Experiments were performed as outlined in the section entitled Experimental Procedures. Concentrations were selected to evaluate the concentration-response relationship of each test article based on the initial results or the solubility limits in vehicle. Each concentration was tested in at least three cells (n≧3).
Cells were transferred to the recording chamber and superfused with vehicle control solution. Micropipette solution for whole cell patch clamp recordings was composed of (mM): potassium aspartate, 130; MgCl2, 5; EGTA, 5; ATP, 4; HEPES, 10; pH adjusted to 7.2 with KOH. Pipette solution was prepared in batches, aliquoted, stored frozen, and a fresh aliquot was thawed each day. Patch pipettes were made from glass capillary tubing using a P-97 micropipette puller (Sutter Instruments, Novato, Calif.). A commercial patch clamp amplifier was used for whole cell recordings. Before digitization, current records were low-pass filtered at one-fifth of the sampling frequency.
Onset and steady state inhibition of hERG current was measured using a pulse pattern with fixed amplitudes (conditioning prepulse: +20 mV for 2 s; test pulse: −50 mV for 2 s) repeated at 10 s intervals, from a holding potential of −80 mV. Peak tail current was measured during the 2 s step to −50 mV.
Each test article at 10 μM was applied to at least 3 cells (n≧3).
One or more test article concentrations were applied sequentially (without washout between test substance concentrations) in ascending order, to each cell (n≧3). A steady state was maintained for at least 30 s before applying test article or positive control. Peak current was measured until a new steady state was achieved.
Steady state was defined by the limiting constant rate of change with time (linear time dependence). The steady state before and after test article application was used to calculate the percentage of current inhibited at each concentration. […]

[1] = system: Plasmodium berghei (KBG-173 strain); assay: Plasmodium berghei assay in vivo (modified Thompson Test) in CD-1 mice; conditions: bid on days 3, 4 and 5; for Average Days Survival: 31 day experiment
Experimental: In vivo antimalarial activity was tested in male or female Charles River CD-1 mice that were 4-5 weeks old and weighed 20-25 g They were housed in groups of 3 or 4 in standard plastic cages with wire tops, Bed-o-Cob® bedding, 12 hr/day of light, and maintained at 75° F. They were fed a standard Ralston Purina mouse chow and the cages and bottles were changed twice a week. Test compounds were ground in a mortar and pestle and diluted with enough vehicle to give a volume of 10 mL/kg of mouse weight. The oral doses were prepared in 0.5% hydroxyethylcellulose (Union Carbide Corp. WP 4400)/0.1% Tween-80 (Fisher Scientific T164-500). The amount of drug was calculated on the free base weight. The mice were infected intraperitoneally on day 0 with 5×10^4 erythrocytes parasitized with Plasmodium berghei (KBG-173 strain) from a donor mouse having a parasitemia between 5-10%. On days 3, 4 and 5 the test compounds were administered bid, spaced 6 hr apart, by oral gavage to the mice. Activity was measured by survival, with full activity defined as all animals living at day 31. Partial activity is defined as days of increased survival versus the infected non-treated controls. This in vivo model is a modification of the Thompson Test. For further description see Ager, A. L, Jr. Rodent Malaria Models. In Handbook of Experimental Pharmacology: Antimalarial Drugs. 1. 68/1; Peters, W., Richards, W. H. G., Eds.: Springer-Verlag: Berlin, 1984, pp. 231-33.

[2] = human, HEK293 cells stably expressing hERG, pH 7.4, HEK293/hERG, room temperature, read-out: Mean percentage of hERG current inhibited
[3] = Plasmodium berghei, 744 h, 4 mg/kg/day oral, CD-1 mice infected with P. berghei, read-out: Number of mice alive at day 31 (converted)
[4] = Plasmodium berghei, 744 h, 8 mg/kg/day oral, CD-1 mice infected with P. berghei, read-out: Number of mice alive at day 31 (converted)
[5] = Plasmodium berghei, 744 h, 16 mg/kg/day oral, CD-1 mice infected with P. berghei, read-out: Number of mice alive at day 31 (converted)
[6] = Plasmodium berghei, 744 h, 32 mg/kg/day oral, CD-1 mice infected with P. berghei, read-out: Number of mice alive at day 31 (converted)
[7] = Plasmodium berghei, 744 h, 64 mg/kg/day oral, CD-1 mice infected with P. berghei, read-out: Number of mice alive at day 31 (converted)

Sequence of hERG potassium channel (Q12809 whole entry): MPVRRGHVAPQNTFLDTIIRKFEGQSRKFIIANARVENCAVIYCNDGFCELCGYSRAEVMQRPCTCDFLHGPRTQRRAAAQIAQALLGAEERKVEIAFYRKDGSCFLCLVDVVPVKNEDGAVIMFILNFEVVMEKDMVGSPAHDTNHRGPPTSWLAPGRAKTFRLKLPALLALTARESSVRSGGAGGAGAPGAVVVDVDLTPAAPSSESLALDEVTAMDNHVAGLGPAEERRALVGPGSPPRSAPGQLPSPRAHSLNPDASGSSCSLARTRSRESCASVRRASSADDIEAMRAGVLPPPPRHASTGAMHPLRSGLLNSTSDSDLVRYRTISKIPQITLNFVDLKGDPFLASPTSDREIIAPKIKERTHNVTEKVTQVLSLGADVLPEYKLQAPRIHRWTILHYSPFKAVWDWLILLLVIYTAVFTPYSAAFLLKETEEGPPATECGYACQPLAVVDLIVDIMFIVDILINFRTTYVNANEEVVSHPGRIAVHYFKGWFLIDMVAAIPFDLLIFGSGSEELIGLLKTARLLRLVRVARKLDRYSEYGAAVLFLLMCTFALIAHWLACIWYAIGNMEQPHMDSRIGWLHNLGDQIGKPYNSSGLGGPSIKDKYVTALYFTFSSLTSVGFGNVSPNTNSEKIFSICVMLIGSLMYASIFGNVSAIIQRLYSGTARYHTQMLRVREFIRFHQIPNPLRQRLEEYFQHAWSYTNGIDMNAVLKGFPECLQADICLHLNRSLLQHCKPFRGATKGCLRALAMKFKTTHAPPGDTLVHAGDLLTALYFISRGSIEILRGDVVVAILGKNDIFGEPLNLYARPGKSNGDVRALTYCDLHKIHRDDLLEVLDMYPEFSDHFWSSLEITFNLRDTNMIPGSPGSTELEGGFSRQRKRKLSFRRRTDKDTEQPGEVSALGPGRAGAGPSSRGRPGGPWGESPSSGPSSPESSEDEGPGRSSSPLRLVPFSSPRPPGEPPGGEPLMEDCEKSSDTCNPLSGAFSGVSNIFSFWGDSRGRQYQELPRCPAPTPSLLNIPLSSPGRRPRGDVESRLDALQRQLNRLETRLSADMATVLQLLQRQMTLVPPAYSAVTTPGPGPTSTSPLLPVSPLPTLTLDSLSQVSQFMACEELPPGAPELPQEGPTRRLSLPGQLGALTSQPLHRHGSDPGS

## CC(C)(C)NCc1cc(C(C)(C)C)cc(-c2cnc(C(F)(F)F)nc2)c1O.Cl [Example 33, 4-(tert-Butyl)-2-((tert-butylamino)methyl)-6-(2-(trifluoromethyl)pyrimidin-5-yl)phenol hydrochloride]
hERG potassium channel; HEK293/hERG
  IC50: > 10 µM
hERG potassium channel; [2]
  inhibition at 3 µM: 4.1%
  inhibition at 10 µM: 12.9%
  inhibition at 30 µM: 24.3%
[1]; 4 mg/kg/day oral
  Average Days Survival: >30 days
[1]; 8 mg/kg/day oral
  Average Days Survival: >31* days
[1]; 16 mg/kg/day oral
  Average Days Survival: >31* days
[1]; 32 mg/kg/day oral
  Average Days Survival: >31* days
[1]; 64 mg/kg/day oral
  Average Days Survival: >31* days
[1]; [3]
  responders at 4 mg/kg: 85.7%
[1]; [4]
  responders at 8 mg/kg: 100%
[1]; [5]
  responders at 16 mg/kg: 100%
[1]; [6]
  responders at 32 mg/kg: 100%
[1]; [7]
  responders at 64 mg/kg: 100%

## CC(C)(C)NCc1cc(C(C)(C)C)cc(-c2cnc(C(F)(F)F)c(F)c2)c1O.Cl [Example 34, 4-(tert-Butyl)-2-((tert-butylamino)methyl)-6-(5-fluoro-6-(trifluoromethyl)pyridin-3-yl)phenol hydrochloride]
hERG potassium channel; HEK293/hERG
  IC50: > 10 µM
hERG potassium channel; human, HEK293 cells stably expressing hERG, pH 7.4, 1 μM, HEK293/hERG, room temperature, read-out: Mean percentage of hERG current inhibited
  inhibition at 1 µM: 2.6%
hERG potassium channel; [2]
  inhibition at 3 µM: 11.3%
  inhibition at 10 µM: 15.9%
[1]; 4 mg/kg/day oral
  Average Days Survival: >28 days
[1]; 8 mg/kg/day oral
  Average Days Survival: >31* days
[1]; 16 mg/kg/day oral
  Average Days Survival: >31* days
[1]; 32 mg/kg/day oral
  Average Days Survival: >31* days
[1]; 64 mg/kg/day oral
  Average Days Survival: >31* days
[1]; [3]
  responders at 4 mg/kg: 85.7%
[1]; [4]
  responders at 8 mg/kg: 100%
[1]; [5]
  responders at 16 mg/kg: 100%
[1]; [6]
  responders at 32 mg/kg: 100%
[1]; [7]
  responders at 64 mg/kg: 100%

## CC(C)(C)NCc1cc(C(C)(C)C)cc(-c2ccc(C(F)(F)F)nc2)c1O.Cl [Example 1, 4-(tert-Butyl)-2-((tert-butylamino)methyl)-6-(6-(trifluoromethyl)pyridin-3-yl)phenol hydrochloride]
hERG potassium channel; HEK293/hERG
  IC50: 9.8 µM
hERG potassium channel; fit of concentration-response data
  Hill coefficient of hERG inhibition: 1.4
hERG potassium channel; [2]
  inhibition at 3 µM: 18.4%
  inhibition at 10 µM: 48.5%
  inhibition at 30 µM: 84%
hERG potassium channel; human, HEK293 cells stably expressing hERG, pH 7.4, 100 μM, HEK293/hERG, room temperature, read-out: Mean percentage of hERG current inhibited
  inhibition at 100 µM: 98.2%
[1]; 2 mg/kg/day oral
  Average Days Survival: >27 days
[1]; 4 mg/kg/day oral
  Average Days Survival: >31* days
[1]; 8 mg/kg/day oral
  Average Days Survival: >31* days
[1]; 16 mg/kg/day oral
  Average Days Survival: >31* days
[1]; 32 mg/kg/day oral
  Average Days Survival: >31* days
[1]; 64 mg/kg/day oral
  Average Days Survival: >31* days
[1]; Plasmodium berghei, 744 h, 2 mg/kg/day oral, CD-1 mice infected with P. berghei, read-out: Number of mice alive at day 31 (converted)
  responders at 2 mg/kg: 71.4%
[1]; [3]
  responders at 4 mg/kg: 100%
[1]; [4]
  responders at 8 mg/kg: 100%
[1]; [5]
  responders at 16 mg/kg: 100%
[1]; [6]
  responders at 32 mg/kg: 100%
[1]; [7]
  responders at 64 mg/kg: 100%
